Common to all, as to assay type: cell-based
Test [1] deals with T1, hPR (Homo sapiens, UniProt P06401).
T1 sequence (P06401 1-933): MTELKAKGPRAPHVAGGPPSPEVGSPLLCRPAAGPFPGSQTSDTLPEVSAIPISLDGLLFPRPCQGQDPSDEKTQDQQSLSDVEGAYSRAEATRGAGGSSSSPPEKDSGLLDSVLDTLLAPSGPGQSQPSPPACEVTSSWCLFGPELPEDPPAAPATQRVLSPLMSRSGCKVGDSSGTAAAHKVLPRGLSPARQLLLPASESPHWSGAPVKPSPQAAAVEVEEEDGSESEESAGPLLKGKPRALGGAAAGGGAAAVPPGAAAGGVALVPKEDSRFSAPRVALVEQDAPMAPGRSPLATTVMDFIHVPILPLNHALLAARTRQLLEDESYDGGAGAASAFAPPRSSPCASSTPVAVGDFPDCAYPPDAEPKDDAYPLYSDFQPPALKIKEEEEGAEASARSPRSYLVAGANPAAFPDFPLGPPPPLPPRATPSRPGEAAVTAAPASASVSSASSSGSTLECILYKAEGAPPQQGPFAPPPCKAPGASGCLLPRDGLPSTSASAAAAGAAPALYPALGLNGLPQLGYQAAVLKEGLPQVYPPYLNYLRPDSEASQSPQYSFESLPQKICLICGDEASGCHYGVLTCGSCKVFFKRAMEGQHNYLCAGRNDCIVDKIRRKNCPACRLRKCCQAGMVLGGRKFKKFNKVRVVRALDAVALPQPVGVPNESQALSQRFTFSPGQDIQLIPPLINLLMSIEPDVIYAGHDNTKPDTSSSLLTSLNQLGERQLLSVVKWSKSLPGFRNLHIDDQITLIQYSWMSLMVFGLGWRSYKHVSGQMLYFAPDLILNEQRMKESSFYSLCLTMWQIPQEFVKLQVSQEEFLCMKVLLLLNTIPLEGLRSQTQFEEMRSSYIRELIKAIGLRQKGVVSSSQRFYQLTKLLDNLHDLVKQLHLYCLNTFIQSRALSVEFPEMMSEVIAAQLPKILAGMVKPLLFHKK
Nature of the test: hPR cotransfection assay in CV-1 cells, antagonist mode. As to conditions: for Emax: CV-1, CV-1 cells, maximal inhibition of reference agonist at EC50 concentration, read-out: hPR Antagonist CV-1 Cells Eff. (%); for IC50: CV-1 cells.
Description: (§1) Antagonist efficacy was determined as a function (%) of maximal inhibition of a reference agonist at EC50 concentration. All the cotransfection experiments were carried out in 96-well plates by automation (Beckman Biomomek automated workstation).

In test [2] the target is T2, human androgen receptor (hAR) (Homo sapiens, UniProt P10275).
T2 sequence (P10275 1-920): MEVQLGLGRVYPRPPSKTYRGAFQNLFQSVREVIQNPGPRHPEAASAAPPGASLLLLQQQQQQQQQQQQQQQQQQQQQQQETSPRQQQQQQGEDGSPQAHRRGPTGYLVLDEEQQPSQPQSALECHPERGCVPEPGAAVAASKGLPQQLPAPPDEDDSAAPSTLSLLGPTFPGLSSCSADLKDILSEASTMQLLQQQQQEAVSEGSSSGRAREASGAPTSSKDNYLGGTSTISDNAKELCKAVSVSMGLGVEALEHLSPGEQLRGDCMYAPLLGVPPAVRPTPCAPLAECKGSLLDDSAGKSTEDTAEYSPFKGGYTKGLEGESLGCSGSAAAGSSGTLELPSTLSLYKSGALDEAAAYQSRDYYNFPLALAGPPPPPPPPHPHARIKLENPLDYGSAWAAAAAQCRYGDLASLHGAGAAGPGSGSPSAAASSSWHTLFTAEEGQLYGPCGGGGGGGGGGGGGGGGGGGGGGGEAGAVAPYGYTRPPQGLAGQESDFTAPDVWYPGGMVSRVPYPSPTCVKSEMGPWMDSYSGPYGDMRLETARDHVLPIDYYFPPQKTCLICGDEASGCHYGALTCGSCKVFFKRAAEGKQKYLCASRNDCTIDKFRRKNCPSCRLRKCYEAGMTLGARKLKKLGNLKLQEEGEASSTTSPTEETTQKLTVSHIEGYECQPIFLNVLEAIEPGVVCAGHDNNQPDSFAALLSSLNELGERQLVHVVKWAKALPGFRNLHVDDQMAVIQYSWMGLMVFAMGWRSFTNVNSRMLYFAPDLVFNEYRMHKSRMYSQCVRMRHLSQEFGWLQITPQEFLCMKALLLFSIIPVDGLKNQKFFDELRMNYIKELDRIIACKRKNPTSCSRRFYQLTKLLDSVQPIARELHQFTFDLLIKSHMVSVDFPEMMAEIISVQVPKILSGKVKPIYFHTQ
Nature of the test: hAR cotransfection assay (potency ratio to hPR). As to conditions: receptor-selectivity potency ratio, cotransfection assays.
Description: as §1

Test [3] concerns the target T3, hPR (Homo sapiens, UniProt P06401).
T3 sequence (P06401 679-933 limits assumed): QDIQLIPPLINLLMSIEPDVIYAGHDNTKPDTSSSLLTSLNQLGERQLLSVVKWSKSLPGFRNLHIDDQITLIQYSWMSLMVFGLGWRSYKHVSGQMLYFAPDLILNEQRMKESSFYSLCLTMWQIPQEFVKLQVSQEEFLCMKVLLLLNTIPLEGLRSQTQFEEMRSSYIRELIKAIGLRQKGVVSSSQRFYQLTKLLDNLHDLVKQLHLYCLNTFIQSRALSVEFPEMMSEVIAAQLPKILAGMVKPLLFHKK
Nature of the test: T47D alkaline phosphatase assay, agonist mode. As to conditions: T47D human breast cancer cells; for Emax: T47D, read-out: hPR Agonist T47D cells Eff. (%).
Excerpt: The potential tissue-selectivities of the selected analogues were examined by using the T47D alkaline phosphatase assay that was developed from human breast cancer cells with endogenous PRs.

This note sets out measurements from US7163946B2 (Ligand Pharmaceuticals Incorporated, priority 2002, dated 2007).

Turning to `CC1=CC(C)(C)Nc2ccc3c(c21)C(c1ccccc1)Oc1c(F)cc(F)cc1-3` (racemic) [Compound 33, (±)-7,9-difluoro-5-phenyl-1,2-dihydro-2,2,4-trimethyl-5H-chromeno[3,4-f]quinoline], at hPR [1], the Emax was less than 20% and the IC50 was more than 10 µM. In test [2], the “hAR EC50 or IC50/hPR EC50” value stood at 37. Moreover, at hPR [3], the EC50 came out at 0.035 µM and the Emax stood at 62%.
The like results for `CC1=CC(C)(C)Nc2ccc3c(c21)C(c1cccc(C)c1)Oc1c(F)cc(F)cc1-3` (racemic) [Compound 34, (±)-7,9-difluoro-5-(3-methylphenyl)-1,2-dihydro-2,2,4-trimethyl-5H-chromeno[3,4-f]quinoline] were, in that order, less than 20%, more than 10 µM, 8.5, 0.034 µM and 60%.
The like results for `CC1=CC(C)(C)Nc2ccc3c(c21)C(c1ccc(Cl)c(C)c1)Oc1c(F)cc(F)cc1-3` (racemic) [Compound 37, (±)-7,9-difluoro-5-(4-chloro-3-methylphenyl)-1,2-dihydro-2,2,4-trimethyl-5H-chromeno[3,4-f]quinoline] were, in that order, less than 20%, more than 10 µM, 558, 0.13 µM and 50%.
In the case of `CC1=CC(C)(C)Nc2ccc3c(c21)C(c1cccc(Cl)c1)Oc1c(F)cc(F)cc1-3` (racemic) [Compound 41, (±)-7,9-difluoro-5-(3-chlorophenyl)-1,2-dihydro-2,2,4-trimethyl-5H-chromeno[3,4-f]quinoline], on hPR [1], the Emax was less than 20% and the IC50 is more than 10 µM. For the same compound, the “hAR EC50 or IC50/hPR EC50” value in test [2] is 252. Moreover, at hPR [3], a half-maximal response (EC50) required 0.042 µM and the Emax turned out to be 54%.
In the case of `CC1=CC(C)(C)Nc2ccc3c(c21)C(c1cc2ccccc2s1)Oc1c(F)cc(F)cc1-3` (racemic) [Compound 63, (±)-7,9-difluoro-5-(benzo[b]thien-2-yl)-1,2-dihydro-2,2,4-trimethyl-5H-chromeno[3,4-f]quinoline], at hPR [1], the Emax was less than 20% and the IC50 was more than 10 µM. Moreover, the “hAR EC50 or IC50/hPR EC50” value in test [2] came out at 136. In addition, at hPR [3], the EC50 was 0.02 µM and the Emax was determined as 61%.
As to `CC#CC1Oc2c(F)cc(F)cc2-c2ccc3c(c21)C(C)=CC(C)(C)N3` (racemic) [Compound 74, (±)-7,9-difluoro-5-(1-propynyl)-1,2-dihydro-2,2,4-trimethyl-5H-chromeno[3,4-f]quinoline], on hPR [1], the Emax is less than 20% and the IC50 is more than 10 µM. Also, in test [2], the “hAR EC50 or IC50/hPR EC50” value stood at 100. Besides, at hPR [3], a half-maximal effect (EC50) was put at 0.0046 µM and the Emax was determined as 58%.
On to `CC1=CC(C)(C)Nc2ccc3c(c21)/C(=C/c1ccccc1)Oc1c(F)cc(F)cc1-3` [Compound 10, 7,9-difluoro-5(Z)-benzylidene-1,2-dihydro-2,2,4-trimethyl-5H-chromeno[3,4-f]quinoline], for which, at hPR [1], the Emax was less than 20% and the IC50 was more than 10 µM. In addition, the “hAR EC50 or IC50/hPR EC50” value in test [2] stood at 320. Besides, on hPR [3], the EC50 stood at 0.03 µM and the Emax came out at 54%.
Take `CC1=CC(C)(C)Nc2ccc3c(c21)/C(=C/c1ccncc1)Oc1c(F)cc(F)cc1-3` [Compound 14, 7,9-difluoro-5(Z)-(4-picolylidene)-1,2-dihydro-2,2,4-trimethyl-5H-chromeno[3,4-f]quinoline]: at hPR [1], the Emax is less than 20% and the 50% inhibitory concentration (IC50) is more than 10 µM. Further, in test [2], the “hAR EC50 or IC50/hPR EC50” value came to 54. Moreover, on hPR [3], the EC50 was determined as 0.049 µM and the Emax amounted to 58%.
The like results for `CC1=CC(C)(C)Nc2ccc3c(c21)/C(=C/c1cccc(F)c1)Oc1c(F)cc(F)cc1-3` [Compound 15, 7,9-difluoro-5(Z)-(3-fluorobenzylidene)-1,2-dihydro-2,2,4-trimethyl-5H-chromeno[3,4-f]quinoline] were, in that order, less than 20%, more than 10 µM, 2, 0.019 µM and 56%.
For `CC1=CC(C)(C)Nc2ccc3c(c21)/C(=C/c1cc(F)ccc1F)Oc1c(F)cc(F)cc1-3` [Compound 17, 7,9-difluoro-5(Z)-(2,5-difluorobenzylidene)-1,2-dihydro-2,2,4-trimethyl-5H-chromeno[3,4-f]quinoline] the same measures were less than 20%, more than 10 µM, 622, 0.012 µM and 62%.
`COc1ccccc1/C=C1\Oc2c(F)cc(F)cc2-c2ccc3c(c21)C(C)=CC(C)(C)N3` [Compound 18, 7,9-difluoro-5(Z)-(2-methoxybenzylidene)-1,2-dihydro-2,2,4-trimethyl-5H-chromeno[3,4-f]quinoline]: on hPR [1], the Emax is less than 20% and the IC50 is more than 10 µM. Also, in test [2], the “hAR EC50 or IC50/hPR EC50” value stood at 170. On hPR [3], the EC50 is 0.017 µM and the Emax is 57%.
As to `CC1=CC(C)(C)Nc2ccc3c(c21)/C(=C/c1cc(F)ccc1C)Oc1c(F)cc(F)cc1-3` [Compound 19, 7,9-difluoro-5(Z)-(2-methyl-5-fluorobenzylidene)-1,2-dihydro-2,2,4-trimethyl-5H-chromeno[3,4-f]quinoline], on hPR [1], the Emax is less than 20% and the concentration for half-maximal inhibition (IC50) was more than 10 µM. Besides, the “hAR EC50 or IC50/hPR EC50” value in test [2] was more than 1000. On hPR [3], the EC50 is 0.0087 µM and the Emax is 65%.
As for `CC1=CC(C)(C)Nc2ccc3c(c21)/C(=C/c1ccncc1C)Oc1c(F)cc(F)cc1-3` [Compound 20, 7,9-difluoro-5(Z)-(3-methyl-4-picolylidene)-1,2-dihydro-2,2,4-trimethyl-5H-chromeno[3,4-f]quinoline], at hPR [1], the Emax is less than 20% and the IC50 was more than 10 µM. Besides, the “hAR EC50 or IC50/hPR EC50” value in test [2] worked out at 8. Further, at hPR [3], it took 0.0066 µM to reach a half-maximal effect (EC50) and the Emax was determined as 63%.
As to `COc1ccc(F)cc1/C=C1\Oc2c(F)cc(F)cc2-c2ccc3c(c21)C(C)=CC(C)(C)N3` [Compound 26, 7,9-difluoro-5(Z)-(2-methoxy-5-fluorobenzylidene)-1,2-dihydro-2,2,4-trimethyl-5H-chromeno[3,4-f]quinoline], at hPR [1], the Emax was less than 20% and the IC50 is more than 10 µM. Further, the “hAR EC50 or IC50/hPR EC50” value in test [2] was found to be 742. In addition, at hPR [3], the EC50 worked out at 0.0075 µM and the Emax came to 63%.

The term IC50 denotes the concentration needed to halve the response being measured. By EC50 is commonly meant the concentration giving half of the maximal effect.
